Measured values as given in the NIST ThermoML archive (doi:10.1016/j.jct.2012.06.030).
Numbers after ± are expanded uncertainties.

Experiment: excess molar enthalpy (molar enthalpy of mixing); xn = mol fraction of the nth substance listed
Conditions: 101 kPa, Liquid, isothermal titration calorimeter

## CCCCCC[n+]1ccc2ccccc2c1.N#C[S-] [2-hexylisoquinolinium thiocyanate] + O
303.15 K, x1 = 0.2511
  excess molar enthalpy: 0.0803 ± 0.0012 kcal/mol
303.15 K, x1 = 0.2663
  excess molar enthalpy: 0.0805 ± 0.0012 kcal/mol
303.15 K, x1 = 0.2835
  excess molar enthalpy: 0.0772 ± 0.000956 kcal/mol
303.15 K, x1 = 0.3031
  excess molar enthalpy: 0.071 ± 0.000956 kcal/mol
303.15 K, x1 = 0.3255
  excess molar enthalpy: 0.0609 ± 0.000956 kcal/mol
303.15 K, x1 = 0.3483
  excess molar enthalpy: 0.048 ± 0.000717 kcal/mol
303.15 K, x1 = 0.3744
  excess molar enthalpy: 0.032 ± 0.000478 kcal/mol
303.15 K, x1 = 0.4001
  excess molar enthalpy: 0.0169 ± 0.000406 kcal/mol
303.15 K, x1 = 0.4295
  excess molar enthalpy: 0.000844 ± 0.000287 kcal/mol
303.15 K, x1 = 0.4576
  excess molar enthalpy: -0.0129 ± 0.000359 kcal/mol
303.15 K, x1 = 0.4895
  excess molar enthalpy: -0.0268 ± 0.000478 kcal/mol
303.15 K, x1 = 0.5184
  excess molar enthalpy: -0.0375 ± 0.000717 kcal/mol
303.15 K, x1 = 0.5509
  excess molar enthalpy: -0.0473 ± 0.000717 kcal/mol
303.15 K, x1 = 0.578
  excess molar enthalpy: -0.054 ± 0.000717 kcal/mol
303.15 K, x1 = 0.6079
  excess molar enthalpy: -0.0595 ± 0.000956 kcal/mol
303.15 K, x1 = 0.641
  excess molar enthalpy: -0.0638 ± 0.000956 kcal/mol
303.15 K, x1 = 0.6779
  excess molar enthalpy: -0.066 ± 0.000956 kcal/mol
303.15 K, x1 = 0.7193
  excess molar enthalpy: -0.0655 ± 0.000956 kcal/mol
303.15 K, x1 = 0.7496
  excess molar enthalpy: -0.0636 ± 0.000956 kcal/mol
303.15 K, x1 = 0.7826
  excess molar enthalpy: -0.0598 ± 0.000956 kcal/mol
303.15 K, x1 = 0.8185
  excess molar enthalpy: -0.054 ± 0.000717 kcal/mol
303.15 K, x1 = 0.858
  excess molar enthalpy: -0.0464 ± 0.000717 kcal/mol
303.15 K, x1 = 0.872
  excess molar enthalpy: -0.0421 ± 0.000717 kcal/mol
303.15 K, x1 = 0.8864
  excess molar enthalpy: -0.037 ± 0.000717 kcal/mol
303.15 K, x1 = 0.9014
  excess molar enthalpy: -0.0318 ± 0.000478 kcal/mol
303.15 K, x1 = 0.9168
  excess molar enthalpy: -0.027 ± 0.000478 kcal/mol
303.15 K, x1 = 0.9328
  excess molar enthalpy: -0.0221 ± 0.00043 kcal/mol
303.15 K, x1 = 0.9494
  excess molar enthalpy: -0.0165 ± 0.000359 kcal/mol
303.15 K, x1 = 0.9666
  excess molar enthalpy: -0.0104 ± 0.000311 kcal/mol
303.15 K, x1 = 0.9844
  excess molar enthalpy: -0.00416 ± 0.000287 kcal/mol
308.15 K, x1 = 0.0931
  excess molar enthalpy: 0.0332 ± 0.00055 kcal/mol
308.15 K, x1 = 0.0953
  excess molar enthalpy: 0.0339 ± 0.00055 kcal/mol
308.15 K, x1 = 0.0976
  excess molar enthalpy: 0.0347 ± 0.00055 kcal/mol
308.15 K, x1 = 0.1
  excess molar enthalpy: 0.0355 ± 0.000574 kcal/mol
308.15 K, x1 = 0.1025
  excess molar enthalpy: 0.0363 ± 0.000574 kcal/mol
308.15 K, x1 = 0.1052
  excess molar enthalpy: 0.0372 ± 0.000574 kcal/mol
308.15 K, x1 = 0.1081
  excess molar enthalpy: 0.0381 ± 0.000598 kcal/mol
308.15 K, x1 = 0.111
  excess molar enthalpy: 0.0391 ± 0.000598 kcal/mol
308.15 K, x1 = 0.1142
  excess molar enthalpy: 0.0401 ± 0.000621 kcal/mol
308.15 K, x1 = 0.1175
  excess molar enthalpy: 0.0412 ± 0.000621 kcal/mol
308.15 K, x1 = 0.1211
  excess molar enthalpy: 0.0423 ± 0.000645 kcal/mol
308.15 K, x1 = 0.1248
  excess molar enthalpy: 0.0436 ± 0.000669 kcal/mol
308.15 K, x1 = 0.1284
  excess molar enthalpy: 0.0447 ± 0.000669 kcal/mol
308.15 K, x1 = 0.1321
  excess molar enthalpy: 0.0459 ± 0.000693 kcal/mol
308.15 K, x1 = 0.1361
  excess molar enthalpy: 0.0473 ± 0.000693 kcal/mol
308.15 K, x1 = 0.1403
  excess molar enthalpy: 0.0486 ± 0.000717 kcal/mol
308.15 K, x1 = 0.1448
  excess molar enthalpy: 0.0501 ± 0.000741 kcal/mol
308.15 K, x1 = 0.1496
  excess molar enthalpy: 0.0516 ± 0.000765 kcal/mol
308.15 K, x1 = 0.1547
  excess molar enthalpy: 0.0533 ± 0.000765 kcal/mol
308.15 K, x1 = 0.1602
  excess molar enthalpy: 0.0551 ± 0.000789 kcal/mol
308.15 K, x1 = 0.166
  excess molar enthalpy: 0.057 ± 0.000813 kcal/mol
308.15 K, x1 = 0.1723
  excess molar enthalpy: 0.0589 ± 0.000837 kcal/mol
308.15 K, x1 = 0.1792
  excess molar enthalpy: 0.0612 ± 0.00086 kcal/mol
308.15 K, x1 = 0.1865
  excess molar enthalpy: 0.0636 ± 0.000908 kcal/mol
308.15 K, x1 = 0.1945
  excess molar enthalpy: 0.0661 ± 0.000932 kcal/mol
308.15 K, x1 = 0.2033
  excess molar enthalpy: 0.069 ± 0.000956 kcal/mol
308.15 K, x1 = 0.2128
  excess molar enthalpy: 0.0718 ± 0.001 kcal/mol
308.15 K, x1 = 0.2233
  excess molar enthalpy: 0.0744 ± 0.00103 kcal/mol
308.15 K, x1 = 0.2349
  excess molar enthalpy: 0.076 ± 0.00105 kcal/mol
308.15 K, x1 = 0.2478
  excess molar enthalpy: 0.0778 ± 0.00105 kcal/mol
308.15 K, x1 = 0.2621
  excess molar enthalpy: 0.0795 ± 0.00108 kcal/mol
308.15 K, x1 = 0.2782
  excess molar enthalpy: 0.0785 ± 0.00108 kcal/mol
308.15 K, x1 = 0.2941
  excess molar enthalpy: 0.0754 ± 0.00103 kcal/mol
308.15 K, x1 = 0.3119
  excess molar enthalpy: 0.0706 ± 0.00098 kcal/mol
308.15 K, x1 = 0.332
  excess molar enthalpy: 0.063 ± 0.000908 kcal/mol
308.15 K, x1 = 0.3549
  excess molar enthalpy: 0.0511 ± 0.000789 kcal/mol
308.15 K, x1 = 0.3772
  excess molar enthalpy: 0.0372 ± 0.000645 kcal/mol
308.15 K, x1 = 0.4025
  excess molar enthalpy: 0.0214 ± 0.000478 kcal/mol
308.15 K, x1 = 0.4262
  excess molar enthalpy: 0.00743 ± 0.000359 kcal/mol
308.15 K, x1 = 0.4529
  excess molar enthalpy: -0.00703 ± 0.000335 kcal/mol
308.15 K, x1 = 0.4767
  excess molar enthalpy: -0.0189 ± 0.000406 kcal/mol
308.15 K, x1 = 0.5032
  excess molar enthalpy: -0.0306 ± 0.000478 kcal/mol
308.15 K, x1 = 0.5328
  excess molar enthalpy: -0.0421 ± 0.000717 kcal/mol
308.15 K, x1 = 0.5573
  excess molar enthalpy: -0.05 ± 0.000717 kcal/mol
308.15 K, x1 = 0.5841
  excess molar enthalpy: -0.0571 ± 0.000717 kcal/mol
308.15 K, x1 = 0.6137
  excess molar enthalpy: -0.0629 ± 0.000956 kcal/mol
308.15 K, x1 = 0.6464
  excess molar enthalpy: -0.0672 ± 0.000956 kcal/mol
308.15 K, x1 = 0.6827
  excess molar enthalpy: -0.0693 ± 0.000956 kcal/mol
308.15 K, x1 = 0.7091
  excess molar enthalpy: -0.0693 ± 0.000956 kcal/mol
308.15 K, x1 = 0.7376
  excess molar enthalpy: -0.0674 ± 0.000956 kcal/mol
308.15 K, x1 = 0.7685
  excess molar enthalpy: -0.0641 ± 0.000956 kcal/mol
308.15 K, x1 = 0.802
  excess molar enthalpy: -0.059 ± 0.000956 kcal/mol
308.15 K, x1 = 0.8213
  excess molar enthalpy: -0.0557 ± 0.000717 kcal/mol
308.15 K, x1 = 0.8416
  excess molar enthalpy: -0.0519 ± 0.000717 kcal/mol
308.15 K, x1 = 0.8628
  excess molar enthalpy: -0.0471 ± 0.000717 kcal/mol
308.15 K, x1 = 0.883
  excess molar enthalpy: -0.0418 ± 0.000717 kcal/mol
308.15 K, x1 = 0.9042
  excess molar enthalpy: -0.0356 ± 0.000478 kcal/mol
308.15 K, x1 = 0.9264
  excess molar enthalpy: -0.0289 ± 0.000478 kcal/mol
308.15 K, x1 = 0.9497
  excess molar enthalpy: -0.0213 ± 0.00043 kcal/mol
308.15 K, x1 = 0.9742
  excess molar enthalpy: -0.0116 ± 0.000335 kcal/mol
